According to publication PMC8657855 (International Journal of Molecular Sciences, 2021):
In brackets after ≈: the same amount, converted by molar mass.

Columns and labels:
Test in all cases: microbe, parasite or virus in culture
[1] = test system: Xanthomonas oryzae pv. oryzae Xoo; conditions: read-out: EC50 (mg/L) Xoo
[2] = test system: Xanthomonas oryzae pv. oryzicola Xoc; conditions: read-out: EC50 (mg/L) Xoc
[3] = test system: Xanthomonas oryzae pv. oryzae Xoo
[4] = test system: Xanthomonas oryzae pv. oryzicola Xoc
[5] = read-out: Inhibition (%) 10 (mg/L)
[6] = read-out: Inhibition (%) 50 (mg/L)

What does the source list for CS(=O)(=O)c1nnc(CNC(=O)c2c(F)cccc2F)o1 [compound 21, 2,6-difluoro-N-((5-(methylsulfonyl)-1,3,4-oxadiazol-2-yl)methyl)benzamide]?
EC50 [1]: 0.65 ± 0.05 mg/L (≈ 2.05 µM); EC50 [2]: 1.51 ± 0.02 mg/L (≈ 4.76 µM); inhibition at 10 µg/mL [3, 5]: 97.4 ± 0.3%; inhibition at 50 µg/mL [3, 6]: 96.3 ± 0.4%; inhibition at 10 µg/mL [4, 5]: 97.1 ± 2.3%; inhibition at 50 µg/mL [4, 6]: 98.4 ± 1.1%
